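Method: 48-hour compound exposure of cells in 96-well plates, five concentrations, linear interpolation of endpoints. TGI denotes the concentration required for complete inhibition of growth.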
Tests used:
Assay in all cases: NCI tumour cell line growth inhibition, 48 h
[1] = system: HOP-62 NSCLC
[2] = system: CAKI-1 renal
[3] = system: PC-3 prostate
[4] = system: MDA-N
[5] = system: OVCAR-4 ovarian
[6] = system: SF-539 CNS
[7] = system: UO-31 renal
[8] = system: IGROV1 ovarian
[9] = system: KM12 colon

Row | SMILES | TGI [1] [µM] | TGI [2] [µM] | TGI [3] [µM] | TGI [4] [µM] | TGI [5] [µM] | TGI [6] [µM] | TGI [7] [µM] | TGI [8] [µM] | TGI [9] [µM]
1 | O=C(CSc1nc(=O)[nH]c2nc[nH]c12)Nc1ccccc1 | > 100 | > 100 | > 100 | > 100 | > 100 | 88.1 | > 100 | > 100 | > 100
2 | Cc1csc2nc(-c3ccc([N+](=O)[O-])cc3)c(/C=N/N=C(N)N)n12 | 3.28 | 12.6 | 3.25 | 3.51 | 3.04 | 3.08 | 2.88 | 2.75 | 3.49
3 | Nc1nc(Cl)cc(NCC2(CO)CCC(Cc3ccccc3)C2)n1 (stereo unspecified) | > 100 | 95.6 | > 96.1 | > 91.5 | > 100 | > 100 | > 92.6 | > 100 | 49.8
4 | CCc1n[nH]c(=O)n1N1C(=O)C2CC=CCC2C1=O (stereo unspecified) | > 100 | > 100 | > 100 | > 100 | > 100 | > 100 | > 100 | > 100 | > 100
5 | O=C(Oc1ccccc1)c1cc2cc(CCl)ccc2oc1=O | > 100 | 29.8 | 29.2 | > 100 | 68.9 | > 100 | 68.1 | > 100 | > 100
6 | CC1CCCC2=C1C(c1ccc(Cl)cc1)n1c(s/c(=C\c3ccc(Cl)cc3)c1=O)=N2 (stereo unspecified) | > 100 | > 100 | > 100 | > 100 | – | – | > 100 | > 100 | > 100
7 | Cc1ccc(/C=C/C(=O)c2c([O-])on[n+]2-c2ccccc2)cc1 | 24.9 | 3.87 | 17.2 | > 26.3 | > 21.1 | 12.7 | 6.24 | 8.67 | 7.69
8 | O=C1c2ccccc2-c2nc(-c3cccnc3)cc3c2c1nc1ccccc13 | > 100 | > 100 | > 100 | – | > 100 | > 100 | > 100 | > 100 | –
9 | CCC1CC2CN3CCc4c([nH]c5c(-c6c(OC)ccc7c8c([nH]c67)[C@]6(C(=O)OC)CC7CC(CC)C6N(CC8)C7)c(O)ccc45)[C@](C(=O)OC)(C2)C13 (stereo partly specified) | 28.5 | 25.2 | 30.2 | 24.6 | – | 39.7 | 27.1 | 31.3 | 32.3
10 | CC(=O)Nc1ncc(Sc2ccccc2C(=O)O)s1 | > 100 | > 100 | > 100 | > 100 | – | > 100 | > 100 | > 100 | > 100
11 | CC(NS(C)(=O)=O)c1ccccc1 (stereo unspecified) | > 100 | > 100 | > 100 | > 100 | > 100 | > 100 | > 100 | > 100 | > 100
12 | O=C(c1cc(Cl)cc(Cl)c1)N(C(=S)OC12CC3CC(CC(C3)C1)C2)c1ccccc1 | > 100 | > 100 | > 100 | > 100 | > 100 | > 100 | 82.8 | – | > 100

Source: PubChem BioAssay (NCI)
